Experimental findings from US11603349B2, “Anti-fibrotic compounds” (Certa Therapeutics Pty Ltd, priority 2017, dated 2023) are described below.

For data set [1], the system named is TGF-β induced [14C]-proline incorporation in rat mesangial cells. Briefly: [14C]-proline incorporation assay (collagen biosynthesis). The data set is classed as cell-based. The following applies: Rattus norvegicus, Mesangial cell, 44 h, inhibition of TGF-β1 (1 ng/ml) induced [14C]-proline incorporation, IRMC cells.
The nature of data set [2]: Discrete oral pharmacokinetic studies in male Sprague Dawley rats. The data set is classed as in vivo, rat. The settings on record: male SD rats; for change in plasma concentrations between the 75 and 350 mg/kg/day dosing groups: after the initial dose; for trough concentrations, 75 and 350 mg/kg/day dosing group: daily, throughout the 5-day study. The protocol: Discrete oral pharmacokinetic studies were performed for example compounds 116, 107, and 102.
116: 2 mg/kg and 20 mg/kg of 116 were administered as single doses to male Sprague Dawley (SD) rats. 75 mg/kg and 350 mg/kg of 116 were administered daily (5 days) to male Sprague Dawley (SD) rats.
107: 2 mg/kg and 20 mg/kg of 107 were administered as single doses to male Sprague Dawley (SD) rats. 75 mg/kg and 350 mg/kg of 107 were administered daily (5 days) to male Sprague Dawley (SD) rats.
102: 2 mg/kg and 20 mg/kg of 102 were administered as single doses to male Sprague Dawley (SD) rats. 75 mg/kg and 350 mg/kg of 102 were administered daily (5 days) to male Sprague Dawley (SD) rats. […] An increase in plasma concentrations were observed between the 75 and 350 mg/kg/day dosing groups.

Data set [3] is described as follows: MTS tetrazolium reduction cell viability assay. The settings on record: rat, rat mesangial cells (1097/IRMC cells), TGF-β1 stimulated, CC50 (μM), vs 1% DMSO vehicle.
A short description of another data set: in vitro. The settings on record: rat, CC50 (μM).

Structures can show the parent of a compound that is named as a salt.

`COc1cc(/C=C/C(=O)Nc2ccccc2C(=O)O)ccc1CC1CC1` [Example 102, 2-[[(E)-3-[4-(cyclopropylmethyl)-3-methoxyphenyl]prop-2-enoyl]amino]benzoic Acid] gave an IC50 in data set [1] of 3.87 µM. In addition, the “coverage of IC50 relative to a 200 mg/kg/day regime of FT011” value in data set [2] (20 mg/kg), in data set [2] (75 mg/kg) and in data set [2] (350 mg/kg) was “superior” each time. In data set [2], the “change in plasma concentrations between the 75 and 350 mg/kg/day dosing groups” value was “An increase”. In data set [2], the “trough concentrations, 75 and 350 mg/kg/day dosing group” value is recorded as “consistent with dosing amounts”. Besides, the CC50 at 48 h in data set [3] was found to be 11.4 µM.
In data set [1], `COc1cc(C2CC2C(=O)Nc2ccccc2F)ccc1C1=CCNCC1` (stereo not drawn) [Example 145, N-(2-fluorophenyl)-2-(3-methoxy-4-(1,2,3,6-tetrahydropyridin-4-yl)phenyl)cyclopropane carboxamide trifluoroacetic acid] displayed an IC50 of 3.71 µM. This molecule also showed a CC50 at 48 h in “in vitro” of 11.7 µM.
Molecule `COc1cc(/C=C/C(=O)Nc2ccc(C#N)cc2)ccc1C1=CCNCC1` [Example 139, (E)-N-(4-cyanophenyl)-3-(3-methoxy-4-(1,2,3,6-tetrahydropyridin-4-yl)phenyl)acrylamide trifluoroacetic acid salt] displayed an IC50 in data set [1] of 5.36 µM. The molecule also had a CC50 at 48 h in the data set “in vitro” of 9.03 µM.
Molecule `COc1cc(C2CC2C(=O)n2nc(O)c3ccccc32)ccc1C1=CCNCC1` (stereo not drawn) [Example 146, (3-hydroxy-1H-indazol-1-yl)(2-(3-methoxy-4-(1,2,3,6-tetrahydropyridin-4-yl)phenyl)cyclopropyl)methanone trifluoroacetic acid salt] displayed an IC50 in data set [1] of 19.6 µM. The CC50 at 48 h in “in vitro” is > 300 µM.
The matching figures for `COc1cc(/C=C/C(=O)Nc2ccccc2F)ccc1C1=CCNCC1` [Example 141, (E)-N-(2-fluorophenyl)-3-(3-methoxy-4-(1,2,3,6-tetrahydropyridin-4-yl)phenyl)acrylamide]: 4.85 µM and 13.5 µM.
As for `COc1cc(C2CC2C(=O)Nc2ccc(F)cc2)ccc1C1=CCNCC1` (stereo not drawn) [Example 143, N-(4-fluorophenyl)-2-(3-methoxy-4-(1,2,3,6-tetrahydropyridin-4-yl)phenyl)cyclopropane carboxamide trifluoroacetic acid salt], in data set [1], half-maximal inhibition (IC50) was put at 2.81 µM. The same molecule yielded a CC50 at 48 h in “in vitro” of 7.2 µM.
The matching figures for `COc1cc(/C=C/C(=O)Nc2ccccc2C(=O)O)ccc1C1=CCNCC1` [Example 98, (E)-2-(3-(3-methoxy-4-(1,2,3,6-tetrahydropyridin-4-yl)phenyl)acrylamido)benzoic Acid]: 13.5 µM and 289 µM.
The matching figures for `COc1cc(/C=C/C(=O)Nc2ccc(F)cc2)ccc1C1=CCNCC1` [Example 120, (E)-N-(4-fluorophenyl)-3-(3-methoxy-4-(1,2,3,6-tetrahydropyridin-4-yl)phenyl)acrylamide]: 3.22 µM and 10.8 µM.
`CN1CCOc2ccc(/C=C/C(=O)Nc3ccccc3C(=O)O)cc21` [Example 107, 2-[[(E)-3-(4-methyl-2,3-dihydro-1,4-benzoxazin-6-yl)prop-2-enoyl]amino]benzoic Acid]: half-maximal inhibition in data set [1] (IC50) required 14.9 µM. The “coverage of IC50 relative to a 200 mg/kg/day regime of FT011” value in data set [2] (350 mg/kg) is reported as “superior”. In addition, the “adverse compound related effects” value in data set [2] (2 and 20 mg/kg single dose, 75 and 350 mg/kg daily (5 days)) is recorded as “No adverse compound related effects were observed”. Moreover, in data set [2], the “change in plasma concentrations between the 75 and 350 mg/kg/day dosing groups” value is recorded as “an increase”; the “trough concentrations, 75 and 350 mg/kg/day dosing group” value is recorded as “consistent with dosing amounts”. The CC50 at 48 h in data set [3] is > 100 µM.
Take `O=C(/C=C/c1ccc2c(c1)NC(=O)CO2)Nc1ccccc1C(=O)O` [Example 111, (E)-2-(3-(3-oxo-3,4-dihydro-2H-benzo[b][1,4]oxazin-6-yl)acrylamido)benzoic acid]: inhibition in data set [1] was half-maximal at 30 µM (IC50). For the same molecule, the CC50 at 48 h in data set [3] was > 300 µM.
On the same counts, the results for `COc1cc(/C=C/C(=O)Nc2ccccc2C(=O)O)ccc1OCC1COC1` [Example 54, (E)-2-(3-(3-methoxy-4-(oxetan-3-ylmethoxy)phenyl)acrylamido)benzoic acid] are 24 µM and > 300 µM.
On the same counts, the results for `C#CCOc1ccc(/C=C/C(=O)Nc2ccccc2C(=O)NCC2CCOC2)cc1OC` (stereo not drawn) [Example 39, (E)-2-(3-(3-methoxy-4-(prop-2-yn-1-yloxy)phenyl)acrylamido)-N-((tetrahydrofuran-3-yl)methyl)benzamide] are 48.3 µM and 85.8 µM.
On to `COc1cc(/C=C/C(=O)Nc2ccccc2C(=O)O)ccc1OC1CCN(C)C1` (stereo not drawn) [Example 51, (E)-2-(3-(3-methoxy-4-((1-methylpyrrolidin-3-yl)oxy)phenyl)acrylamido)benzoic acid], for which, in data set [1], the IC50 came to 15.5 µM. The CC50 at 48 h in data set [3] was > 300 µM.
The matching figures for `COc1ccc(/C=C/C(=O)N2CCOc3ccccc32)c(OCCN(C)C)c1OC` [Example 115, (E)-1-(2H-benzo[b][1,4]oxazin-4(3H)-yl)-3-(2-(2-(dimethylamino)ethoxy)-3,4-dimethoxyphenyl)-prop-2-en-1-one]: 7.03 µM and 45.4 µM.
On the same counts, the results for `C#CCNCc1cc(/C=C/C(=O)Nc2ccccc2C(=O)O)ccc1OC` [Example 74, (E)-2-(3-(4-methoxy-3-((prop-2-yn-1-ylamino)methyl)phenyl)acrylamido)benzoic acid] are 14.7 µM and 319 µM.
On the same counts, the results for `C#CCOc1ccc(/C=C/C(=O)Nc2ccccc2C(=O)NCCc2ccncc2)cc1OC` [Example 46, (E)-2-(3-(3-methoxy-4-(prop-2-yn-1-yloxy)phenyl)acrylamido)-N-(2-(pyridin-4-yl)ethyl)benzamide] are 46.6 µM and 186 µM.
Turning to `C#CCNCc1ccc(/C=C/C(=O)Nc2ccccc2C(=O)O)cc1OC` [Example 75, (E)-2-(3-(3-methoxy-4-((prop-2-yn-1-ylamino)methyl)phenyl)acrylamido)benzoic acid], in data set [1], the IC50 was 27.6 µM. In data set [3], the CC50 at 48 h was > 300 µM.
As for `COc1ccc(/C=C/C(=O)Nc2ccccc2C#N)c(OCCN(C)C)c1` [Example 94, (E)-N-(2-cyanophenyl)-3-[2-[2-(dimethylamino)ethoxy]4-methoxy-phenyl]prop-2-enamide], inhibition in data set [1] was half-maximal at 21.7 µM (IC50). This molecule gave a CC50 at 48 h in data set [3] of 35 µM.
With `C#CCOc1ccc(C2CC2C(=O)N2CCOc3ccccc32)cc1OC` (stereo not drawn) [Example 119, (2H-benzo[b][1,4]oxazin-4(3H)-yl)(2-(3-methoxy-4-(prop-2-yn-1-yloxy)phenyl)cyclopropyl) methanone], it took 24.7 µM to reach half-maximal inhibition in data set [1] (IC50). This molecule returned a CC50 at 48 h in data set [3] of 74.8 µM.
In data set [1], `C#CCOc1ccc(/C=C/C(=O)N2CCOc3ccccc32)cc1OC` [Example 12, (E)-1-(2,3-dihydro-4H-benzo[b][1,4]oxazin-4-yl)-3-(3-methoxy-4-(prop-2-yn-1-yloxy)phenyl)prop-2-en-1-one] yielded an IC50 of 10.2 µM. Moreover, the CC50 at 48 h in data set [3] was 335 µM.
On the same counts, the results for `COc1ccc(C2CC2C(=O)Nc2ccc(F)cc2)c(OCCN(C)C)c1OC` (stereo not drawn) [Example 122, 2-(2-(2-(dimethylamino)ethoxy)-3,4-dimethoxyphenyl)-N-(4-fluorophenyl)cyclopropane-1-carboxamide] are 17.2 µM and 234 µM.
On the same counts, the results for `COc1ccc(/C=C/C(=O)Nc2cc(Cl)ccc2C(=O)O)c(OCCN(C)C)c1OC` [Example 117, (E)-4-chloro-2-(3-(2-(2-(dimethylamino)ethoxy)-3,4-dimethoxyphenyl)acrylamido)benzoic Acid] are 21.4 µM and > 300 µM.
On the same counts, the results for `C#CCOc1ccc(/C=C/C(=O)N2CCCc3ccccc32)cc1OC` [Example 10, (E)-1-(3,4-dihydroquinolin-1(2H)-yl)-3-(3-methoxy-4-(prop-2-yn-1-yloxy)phenyl)prop-2-en-1-one] are 6.04 µM and 66.4 µM.
In turn, `C#CCOc1ccc(/C=C/C(=O)Nc2ccccc2C(=O)O)c(OC2CCNC2)c1OC` (stereo not drawn) [Example 80, 2-[[(E)-3-(3-methoxy-4-prop-2-ynoxy-2-pyrrolidin-3-yloxyphenyl)prop-2-enoyl]amino]benzoic acid] showed an IC50 in data set [1] of 24.5 µM. Further, the CC50 at 48 h in data set [3] was > 100 µM.
On to `C#CCOc1ccc(/C=C/C(=O)N2CCOc3ccccc32)cc1CC` [Example 113, (E)-1-(2H-benzo[b][1,4]oxazin-4(3H)-yl)-3-(3-ethyl-4-(prop-2-yn-1-yloxy)phenyl)prop-2-en-1-one], for which half-maximal inhibition in data set [1] (IC50) required 7.75 µM. In data set [3], this molecule displayed a CC50 at 48 h of 32.6 µM.
As to `COc1c(OCC2CC2)ccc(/C=C/C(=O)Nc2ccccc2C(=O)O)c1OCCN(C)C` [Example 90, 2-[[(E)-3-[4-(cyclopropylmethoxy)-2-[2-(dimethylamino)ethoxy]-3-methoxy-phenyl]prop-2-enoyl]amino]benzoic acid], half-maximal inhibition in data set [1] (IC50) was put at 21.9 µM. In data set [3], the CC50 at 48 h is > 300 µM.
`COc1ccc(/C=C/C(=O)Nc2ccccc2C(=O)O)cc1OCCc1cccnc1` [Example 64, (E)-2-(3-(4-methoxy-3-(2-(pyridin-3-yl)ethoxy)phenyl)acrylamido)benzoic acid] returned an IC50 in data set [1] of 14.2 µM. In data set [3], the CC50 at 48 h was 142 µM.
